Paper PMC5666381, “Rapid Assessment of the Toxicity of Fungal Compounds Using Luminescent Vibrio qinghaiensis sp. Q67” (Toxins, 2017)
Values after ≈ are worked out from the molar mass of the structure shown.

Legend:
[1] = system: Vibrio qinghaiensis sp. Q67; assay: microbe, parasite or virus in culture; format: cell-based; conditions: for IC50: Vibrio qinghaiensis, 0.25 h, read-out: IC50, luminescence inhibition of standard mycotoxins; for IC50 / IC50, luminescence inhibition of standard mycotoxins: V. qinghaiensis sp. Q67, 15 min exposure, 22 °C, 0.8% NaCl
[2] = system: Photobacterium phosphoreum; conditions: Photobacterium phosphoreum bioluminescence; cited from earlier work
kidney cells = conditions: cited from earlier work; for IC50: read-out: IC50, cytotoxic effects, ref Bouslimi et al. (2008) [29]; for IC50, cytotoxic effects: value in brackets after the µM value, ref Bouslimi et al. (2008) [29]
Aliivibrio fischeri = conditions: cited from earlier work
V. fischeri [3] = conditions: cited from earlier work
[4] = system: human promyelocytic leukemia cell line HL60; conditions: HL60 cells; ref Nagashima and Nakagawa (2014) [13]; cited from earlier work
mice = conditions: ref Kouadio et al. (2013) [14]; cited from earlier work
V. fischeri [5] = conditions: ref Menz et al. (2013) [25]; cited from earlier work

With O=C1C=C2C(=CCOC2O)O1 (stereo not shown) [Patulin] the IC50 [1] was 13.3 ± 0.14 µg/mL (≈ 86.4 µM).
In the case of C[C@@H]1Cc2c(Cl)cc(C(=O)N[C@@H](Cc3ccccc3)C(=O)O)c(O)c2C(=O)O1 [Ochratoxin A], the IC50 [1] is listed as 11.02 ± 0.1 µg/mL (≈ 27.3 µM), the “EC50 for toxic effects” value [2] is listed as 16.88 µg/mL and the IC50 (kidney cells) is listed as 50 µM. The “IC50, cytotoxic effects” value (kidney cells) was 20.15 µg/mL (≈ 49.9 µM).
For aflatoxin B1, the EC50 (Aliivibrio fischeri) is given as 23.3 µg/mL and the EC50 (V. fischeri [3]) is given as 14.4 µg/mL.
In the case of CCCC[C@@H](C)[C@@H](OC(=O)C[C@@H](CC(=O)O)C(=O)O)[C@H](C[C@@H](C)C[C@H](O)CCCC[C@@H](O)C[C@H](O)[C@H](C)N)OC(=O)C[C@@H](CC(=O)O)C(=O)O [Fumonisin B1], the “IC50, luminescence inhibition of standard mycotoxins” value [1] is reported as 14.88 ± 0.14 µg/mL.
For CC1=C2C(=CO[C@H](C)[C@H]2C)C(O)=C(C(=O)O)C1=O [Citrinin], the IC50 [1] is given as 12.23 ± 0.1 µg/mL (≈ 48.9 µM), the “EC50 for toxic effects” value [2] is given as 20.05 µg/mL and the IC50 (kidney cells) is given as 220 µM. For the same molecule, the “IC50, cytotoxic effects” value (kidney cells) was 55.06 µg/mL (≈ 220 µM).
In the case of CC1=C[C@H]2O[C@@H]3[C@H](O)C[C@](C)([C@@]2(CO)[C@H](O)C1=O)[C@]31CO1 [Deoxynivalenol], the “IC50, luminescence inhibition of standard mycotoxins” value [1] is listed as 30.74 ± 0.33 µg/mL, the “IC50, cell proliferation” value [4] is listed as 0.36 µg/mL (≈ 1.21 µM) and the “no-observed-adverse-effect level (NOAEL)” value (mice) is listed as “lower than 45 µg kg^−1 day^−1”.
In the case of C[C@H]1CCCC(=O)CCC/C=C/c2cc(O)cc(O)c2C(=O)O1 [Zearalenone], the IC50 [1] is listed as 9.71 ± 0.17 µg/mL (≈ 30.5 µM) and the “EC50 for toxic effects” value [2] is listed as 13.51 µg/mL.
For O.O.O.O.O.O.O.O=S(=O)([O-])[O-].[Zn+2] [ZnSO4, Zinc sulfate heptahydrate], the “IC50, luminescence inhibition by ZnSO4” value ([1]; V. qinghaiensis Q67, reference substrate, 15 min) is listed as 7640 ± 420 µg/mL and the “IC50, inhibition of relative luminescence” value (V. fischeri [5]) is listed as 26000 ± 3300 µg/mL.
